The record followed here is patent US20260217699A1, “BERBERINE TAUROURSODEOXYCHOLATE COMPOSITIONS AND METHODS THEREOF” (SHENZHEN HIGHTIDE BIOPHARMACEUTICAL LTD., priority 2023, published 2026).

Data set [1] concerns microglia (Iba-1) positive cells. The experiment in a line: Immunofluorescence staining of Iba-1 in Str and SN brain regions. The conditions noted are these: Mean ± SEM, N=15; for Iba-1 staining SN positive cells num.: Model 397.8 ± 21.2; for Iba-1 staining Str positive cells num.: Model 668.3 ± 13.0. In kind it is in vivo, Sprague-Dawley rats. As for the experimental part: After the rat was anesthetized, the abdominal cavity and thorax were cut open with straight scissors to expose the heart. The blood was first flushed out with normal saline perfusion, and then paraformaldehyde was used for initial perfusion fixation. The head was cut off, and the brain case was carefully opened with tweezers, and the brain tissue was removed and placed in paraformaldehyde solution and fix for 24 h; on the second day, took out the brain tissue and placed in 20% sucrose solution for 24 h; on the third day, took out the brain tissue and placed in 30% sucrose solution for 24 h; on the fourth day, took out the brain tissue and placed in 35% sucrose solution for 24 h (increase the time or concentration appropriately according to the condition of sugar deposition in the brain tissues); took out the brain tissue, embedded it in OCT embedding agent, and cut brain slices at the thickness of […] with a freezing microtome.
Immunohistochemical staining of TH and Iba-1 was performed on the sections. Sections were rewarmed for 30 min, closed at room temperature for 1 h with 50% serum+0.3% TritonX-100 in 50 μL per slice, shook off the slices, added primary antibody (diluted in PBS), overnight at 4° C.; rewarmed for 30 min; washed off primary antibody (PBS), 5 min×3 times; added secondary antibody (diluted in PBS) by backlighting, room temperature for 2 h; washed off secondary antibody (PBS), 5minx 3 times; added (4′,6-diamidino-2-phenylindole) (DAPI), and stayed at room temperature for 10 min; washed off DAPI, 5 min×3 times; added 70% glycerol to seal the slices to avoid air bubbles. Observed and took pictures under a microscope. Selected basically the same target brain area for each slice. Afterwards, ImageJ was used to count the signal number or area of the entire slice.
(§1) Experimental Methods: Seventy 180-220g SD male rats were selected and fed for one week for accumulation, and the PD model was established by stereotactic unilateral injection of 6-OHDA in the Substantia Nigra (SN) and Striatum (Str) regions and were randomly divided into five groups according to their body weights including Madopar group (Madopar, 50 mg/kg), BTUDC-L group (BTUDC, 100 mg/kg), BTUDC-M group (BTUDC, 500 mg/kg), and BTUDC-H group (BTUDC, 1000 mg/kg), with 10 animals in each group. Another 10 SD male rats were taken for sham operation (only 4 μL of 0.9% NS containing 0.02% ascorbic acid was given to the SN and Str brain regions during modeling) as the Sham group. The drug was administered by gavage once daily continuously for 21 days starting on the second day of modeling (first day of dosing, D1). General observation was made during the dosing period. At the end of the administration, the test articles were evaluated for tolerance in this model and in behavioral apomorphine—asymmetric rotation test, beam test, rotarod test and grip strength test, immunofluorescence staining (TH, Ibal), and cerebrospinal fluid inflammatory factor assays to evaluate the pharmacodynamic effects of the test articles. Inflammatory factors tested included interleukin 6 (1L-6), inflammatory factor […], Tumor Necrosis Factor alpha (TNF-α), inflammatory assays were done in a total of 4 groups included Sham, Model, Madopar and BTUDC-H groups.
Dosing volume: 10 mL/kg • 1. General observation: During the period of drug administration, body weight, food intake test and cage side observation were conducted every 3 days. • 2. Behavioral test: After 21 days of administration, behavioral test was carried out on the following day. • 3. […]

Data set [2] deals with 6-OHDA Stereotactic Injection Induced PD Rats. Put plainly: Tolerability / general condition observation in PD rat model. The class given is in vivo, Sprague-Dawley rats. As for the experimental part: In this study, 16 Sprague Dawley (SD) male rats 180g-220g were used to establish a PD model by stereotactic unilateral injection of 6-OHDA in the substantia nigra (SN) and striatum (Str) brain areas after one week of acclimatization feeding and were randomly divided into 2 groups of 8 rats each. One group was dosed with the test compound BTUDC 500 mg/kg (QD, p.o.) and the other group was the Model group, which was given an equal volume of 0.5% CMC-Na (QD, p.o.) as the test compound group. The animals were administered once a day for 21 consecutive days starting from the second day after modeling to evaluate the tolerability and therapeutic potential of BTUDC in the 6-OHDA PD model.
The body weight and food intake of the rats were collected and recorded every day, and the cage side observation for the animals was carried out.
as §1
Dosing volume: 10 mL/kg • 1. General observation: During the period of drug administration, body weight, food intake test and cage side observation were conducted […]. • 2. Behavioral test: After 21 days of administration, behavioral test was carried out on the following day. • 3. Histochemical test: After the behavioral test, the cerebrospinal fluid from each animal (N=10) was collected, centrifuged to collect the supernatant, and stored at −80° C. for Elisa test (IL-6, IL-1β, TNF-α), then the animals in each group (N=5) were randomly selected to take the modeling side of the striatum for the detection of neurotransmitters, and the rest of them (N=5) were subjected to cardiac perfusion, which was performed by the process of perfusion, fixation, sedimentation and slicing for immunofluorescence staining and photographed, and the number or area of signals were counted by ImageJ software. • 4. Data analysis: After the data were summarized and counted, they were analyzed using SPSS data statistics software (one-way ANOVA, p<0.05 was considered a significant difference), and images were plotted according to the results of SPSS analysis using Graph Pad software. […]

[3] abbreviates: BTUDC-H 1000 mg/kg p.o. Qd 21 days, p<0.001 vs Model.
Where [4] appears, read: up to 1000 mg/kg p.o. Qd 21 days.

On to `COc1ccc2cc3[n+](cc2c1OC)CCc1cc2c(cc1-3)OCO2.C[C@H](CCC(=O)NCCS(=O)(=O)[O-])[C@H]1CC[C@H]2[C@@H]3[C@@H](O)C[C@@H]4C[C@H](O)CC[C@]4(C)[C@H]3CC[C@]12C` [BTUDC, Berberine tauroursodeoxycholate], for which the “Iba-1 staining SN positive cells num.” value is listed as 270.0 ± 21.5 in data set [1] (setting [3]); 413.7 ± 42.8 in data set [1] (BTUDC-L 100 mg/kg p.o. Qd 21 days, no significance mark); 393.1 ± 20.1 in data set [1] (BTUDC-M 500 mg/kg p.o. Qd 21 days, no significance mark). For the same molecule, the “Iba-1 staining Str positive cells num.” value was 556.5 ± 16.2 in data set [1] (setting [3]); 601.7 ± 14.2 in data set [1] (BTUDC-L 100 mg/kg p.o. Qd 21 days, p<0.01 vs Model); 602.7 ± 9.1 in data set [1] (BTUDC-M 500 mg/kg p.o. Qd 21 days, p<0.01 vs Model). For the same molecule, the “tolerability in the PD rat model” value in data set [2] (500 mg/kg QD p.o. 21 days) is recorded as “well tolerated”. Further, the “mortality, moribundity, abnormal animal state” value in data set [2] (500 mg/kg QD p.o. 21 days, vs model group) is reported as “no Test Compound-related mortality or moribundity nor abnormal animal state”. The “body weight and food intake vs model control group” value in data set [2] (500 mg/kg QD p.o. 21 days, whole study period) was “no obvious differences”. Further, the “body weight growth or food intake compared with other groups of animals” value in data set [2] (setting [4]) is “no obvious abnormalities”. Moreover, in data set [2] (setting [4]), the tolerability entry is listed as “well tolerated”.
